Test results from US4840950A, “4-arylcarbonyl-1-[(4-morpholinyl)-lower-alkyl]-1H-indoles” (Sterling Drug Inc., priority 1987, dated 1989).

Assays:
[1] = system: acetylcholine-induced abdominal constriction in mice; assay: acetylcholine-induced abdominal constriction test (Ach), antinociceptive activity; type: in vivo; conditions: for ED50: Mus musculus, oral administration
From the text: (§1) The test procedures used to determine the analgesic activity of the compounds have been described in detail in the prior art and are as follows: The acetylcholine-induced abdominal constriction test, which is a primary analgesic screening test designed to measure the ability of a test agent to suppress acetylcholine-induced abdominal constriction in mice, described by Collier et al., Brit. J. Pharmacol, Chemotherap. 32, 295 (1968) and the rotorod performance test, which is a test designed to measure neurotoxicity of a test compound, described by Dunham et al., J. Pharm. Sci. 46, 206-209 (1957).
(§2) The 4-arylcarbonyl-1-[(4-morpholinyl)-lower-alkyl]-1H-indoles of the invention were tested in the acetylcholine-induced abdominal constriction test (Ach), which gives a measure of antinociceptive activity, and the rotorod assay (R.R.), which gives a measure of neurotoxicity and CNS impairment. The results, expressed in terms of the ED50 's obtained on oral administration in the acetylcholine test and as the ratio of the rotorod (R.R.):Ach ED50 's, are given in the following table: […]

[2] = rotorod performance test (R.R.), neurotoxicity and CNS impairment, as ratio to Ach; conditions: mouse, in vivo; ratio of rotorod (R.R.):Ach ED50's; Ach ED50 on oral administration
From the text: as §1, §2

O=C(c1cccc2ccccc12)c1cccc2c1ccn2CCN1CCOCC1 [Ex. 1C, 1-[2-(4-morpholinyl)ethyl]-4-(1-naphthylcarbonyl)-1H-indole p-toluenesulfonate hydrate 3:1]
ED50 [1]: 16 mg/kg

COc1ccc(C(=O)c2cccc3c2ccn3CCN2CCOCC2)cc1.Cl [Ex. 1A, 4-(4-methoxybenzoyl)-1-[2-(4-morpholinyl)ethyl]-1H-indole hydrochloride]
Ach (percent effect) ([1]; 93%/100(s.c.): at 100 (dose unit not given), s.c.): 93% | ED50 [1]: 46 mg/kg | selectivity ratio [2]: 3.1

COc1ccc(C(=O)c2cccc3c2ccn3CCCN2CCOCC2)cc1.Cl [Ex. 1B, 4-(4-methoxybenzoyl)-1-[3-(4-morpholinyl)propyl]-1H-indole hydrochloride]
ED50 [1]: 63 mg/kg | selectivity ratio [2]: 2.8
